Results taken from paper PMC11790914, “Chemogenomics for steroid hormone receptors (NR3)” (Communications Chemistry, 2025).
Several values for one entry are separate records, joined by “and”; a condition that tells them apart may be missing. Equal values may be shown once.

How the values were obtained:
HEK293T cells [1] = assay: Cytotoxicity: growth-rate (change in confluence over 24 h); settings: 1 µM, normalized to 0.1% DMSO control, single replicates (n=1...)
AURKA = molecular target: T1, AURKA (Homo sapiens, UniProt O14965); assay: Liability panel screening by DSF: AURKA; format: binding; settings: DSF, 20 µM, n=2; read-out: Mean ΔTM AURKA
T1 construct: made in house
T1 sequence (O14965 1-403): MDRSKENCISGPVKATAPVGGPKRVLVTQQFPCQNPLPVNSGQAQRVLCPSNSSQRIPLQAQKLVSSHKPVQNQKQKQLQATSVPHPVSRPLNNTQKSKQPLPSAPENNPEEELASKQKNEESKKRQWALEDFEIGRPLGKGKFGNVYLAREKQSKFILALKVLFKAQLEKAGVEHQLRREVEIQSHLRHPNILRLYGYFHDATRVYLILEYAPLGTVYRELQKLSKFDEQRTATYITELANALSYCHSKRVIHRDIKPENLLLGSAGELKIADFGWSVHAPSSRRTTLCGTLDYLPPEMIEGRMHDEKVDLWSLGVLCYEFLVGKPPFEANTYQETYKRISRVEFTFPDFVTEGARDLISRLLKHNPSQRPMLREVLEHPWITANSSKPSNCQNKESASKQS
Outline: (§1)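 ∆Tm in K was taken from Boltzmann-fitted unfolding inflection points, run in duplicate with a temperature ramp of 3 °C per minute up to 85 °C. Each recombinant protein (2 µM) was in HEPES 10 mM pH 7.5 and NaCl 500 mM, with SYPRO Orange dye at 1:1000.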

BRPF1 = molecular target: T2, BRPF1 (Homo sapiens, UniProt P55201); assay: Liability panel screening by DSF: BRPF1; format: binding; settings: DSF, 20 µM, n=2; read-out: Mean ΔTM BRPF1
T2 construct: This panel comprised ten highly ligandable kinases and bromodomains; made in house
T2 sequence (P55201 628-732 limits assumed): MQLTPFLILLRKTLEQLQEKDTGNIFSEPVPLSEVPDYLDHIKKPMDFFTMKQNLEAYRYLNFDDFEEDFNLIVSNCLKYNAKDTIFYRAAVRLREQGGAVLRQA
Outline: as §1

FGFR3 = molecular target: T3, FGFR3 (Homo sapiens, UniProt P22607); assay: Liability panel screening by DSF: FGFR3; format: binding; settings: DSF, 20 µM, n=2; read-out: Mean ΔTM FGFR3
T3 construct: made in house
T3 sequence (P22607 23-806, species assumed): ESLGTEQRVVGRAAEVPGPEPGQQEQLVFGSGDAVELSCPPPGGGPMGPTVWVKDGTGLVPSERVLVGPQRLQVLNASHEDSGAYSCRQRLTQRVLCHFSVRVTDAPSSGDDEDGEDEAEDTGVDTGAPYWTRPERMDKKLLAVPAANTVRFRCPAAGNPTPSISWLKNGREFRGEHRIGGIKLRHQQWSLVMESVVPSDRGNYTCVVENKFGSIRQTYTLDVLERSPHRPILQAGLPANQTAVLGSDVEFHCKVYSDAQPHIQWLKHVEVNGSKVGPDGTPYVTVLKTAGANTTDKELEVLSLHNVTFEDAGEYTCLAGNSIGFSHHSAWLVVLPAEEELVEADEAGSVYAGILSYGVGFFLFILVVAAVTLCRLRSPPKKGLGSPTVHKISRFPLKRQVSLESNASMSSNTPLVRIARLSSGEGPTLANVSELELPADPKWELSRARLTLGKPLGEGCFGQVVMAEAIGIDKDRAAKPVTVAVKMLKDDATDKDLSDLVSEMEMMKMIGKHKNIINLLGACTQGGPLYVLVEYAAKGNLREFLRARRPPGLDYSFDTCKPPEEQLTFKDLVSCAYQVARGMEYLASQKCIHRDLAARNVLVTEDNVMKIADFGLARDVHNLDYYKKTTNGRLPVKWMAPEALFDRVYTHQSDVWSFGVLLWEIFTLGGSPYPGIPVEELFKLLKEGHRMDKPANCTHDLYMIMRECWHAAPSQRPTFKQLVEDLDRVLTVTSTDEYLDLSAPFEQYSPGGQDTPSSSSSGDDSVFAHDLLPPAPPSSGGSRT
Outline: as §1

GSK3B = molecular target: T4, GSK3B (Homo sapiens, UniProt P49841); assay: Liability panel screening by DSF: GSK3B; format: binding; settings: DSF, 20 µM, n=2; read-out: Mean ΔTM GSK3B
T4 construct: made in house
T4 sequence (P49841 whole entry, species assumed): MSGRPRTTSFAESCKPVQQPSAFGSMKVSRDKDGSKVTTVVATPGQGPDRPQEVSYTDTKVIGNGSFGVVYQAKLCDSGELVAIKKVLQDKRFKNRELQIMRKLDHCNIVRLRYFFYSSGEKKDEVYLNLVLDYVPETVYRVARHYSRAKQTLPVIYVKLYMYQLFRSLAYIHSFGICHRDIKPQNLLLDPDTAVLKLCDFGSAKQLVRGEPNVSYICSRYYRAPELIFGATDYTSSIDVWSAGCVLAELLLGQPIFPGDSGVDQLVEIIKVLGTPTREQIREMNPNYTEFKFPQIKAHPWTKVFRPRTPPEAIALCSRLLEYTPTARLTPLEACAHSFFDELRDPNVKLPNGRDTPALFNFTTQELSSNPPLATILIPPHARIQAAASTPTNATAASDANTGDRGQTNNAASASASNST

HEK293T cells [2] = assay: Cytotoxicity: metabolic activity (WST-8 / CCK-8 assay); settings: 1 µM; HEK293T, 24 h; WST-8; normalized to 0.1% DMSO; single replicates
CDK2 = molecular target: T5, CDK2 (Homo sapiens, UniProt P24941); assay: Liability panel screening by DSF: CDK2; format: binding; settings: DSF, 20 µM, n=2; read-out: Mean ΔTM CDK2
T5 construct: made in house
Outline: as §1

MAPK1 = molecular target: T6, MAPK1 (Homo sapiens, UniProt P28482); assay: Liability panel screening by DSF: MAPK1; format: binding; settings: DSF, 20 µM, n=2; read-out: Mean ΔTM MAPK1
T6 construct: made in house
T6 sequence (P28482 whole entry, species assumed): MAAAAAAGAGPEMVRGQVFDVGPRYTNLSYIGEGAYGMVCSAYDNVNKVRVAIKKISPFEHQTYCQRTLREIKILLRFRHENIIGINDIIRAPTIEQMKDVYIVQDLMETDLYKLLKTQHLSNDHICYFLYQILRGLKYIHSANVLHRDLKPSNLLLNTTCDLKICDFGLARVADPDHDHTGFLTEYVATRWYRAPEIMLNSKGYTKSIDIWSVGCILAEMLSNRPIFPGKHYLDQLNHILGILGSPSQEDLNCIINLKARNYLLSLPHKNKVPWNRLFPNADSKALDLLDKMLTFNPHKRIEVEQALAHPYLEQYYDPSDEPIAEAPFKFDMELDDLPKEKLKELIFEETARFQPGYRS
Outline: as §1

HEK293T cells [3] = assay: Cytotoxicity: necrosis induction (red fluorescent dye for permeable plasma membranes); format: cell-based; settings: 1 µM, 24 h, necrotic cell count normalized to 0.1% DMSO, single replicates;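 further: compounds applied in DMEM high glucose with 0.1% FCS and 0.1% DMSO, necrotic HEK293T cells counted by red staining of cells whose plasma membranes had become permeable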
HEK293T cells [4] = assay: Cytotoxicity: apoptosis induction (caspase-3/7 DEVD fluorogenic DNA dye); settings: 1 µM; HEK293T, 24 h; apoptotic cell count normalized to 0.1% DMSO; single replicates
Procedure: Cells were incubated with the test compounds at the indicated concentrations solubilized with 0.1% DMSO for 24 h. Growth-rate was determined based on the change in confluence over 24 h normalized to the change in confluence of cells treated with the 0.1% DMSO control (n = 10). Metabolic activity was determined with a water-soluble tetrazolium-8 (WST-8) assay (n = 8) after 24 h treatment. Apoptotic cells were detected with a fluorogenic DNA dye coupled to the caspase-3/7 recognition sequence (DEVD) after 24 h treatment and the apoptotic cell count was normalized to 0.1% DMSO treated cells (n = 6).
HEK293T cells (German Collection of Microorganisms and Cell Culture GmbH, DSMZ; #ACC305) were cultured in DMEM high glucose, supplemented with 10% fetal calf serum (FCS), sodium pyruvate (1 mM), penicillin (100 µ/mL) and streptomycin (100 µg/mL) at 37 °C and 5% (v/v) CO2, and seeded in pre-coated (10 µg/mL collagen G solution (Merck KgaA; #L7213) for 30 min at 37 °C) 96-well plates (2 × 10^5 cells per well). After 24 h, the cells were treated with the respective NR3 CG compound candidate at the recommended concentration, bexarotene (100 µM) or doxorubicin (30 µM) as positive controls in DMEM high glucose supplemented with 0.1% FCS, penicillin (100 µ/mL), streptomycin (100 µg/mL) and 0.1% DMSO, or 0.1% DMSO alone as an untreated control. Each sample was prepared in at least four biologically independent replicates. […] Thereafter, the medium was aspirated and the cells were incubated for 3 h with 90 µL DMEM high glucose supplemented with 0.2% FCS, penicillin (100 µ/mL) and streptomycin (100 µg/mL) and additionally containing 10 µL Cell Counting Kit 8 solution (CCK-8; MedChemExpress, Monmouth Junction, New York, USA; #HY-K0301), and absorbance was measured at 1 h, 2 h and 3 h of incubation at 450 nm on a Tecan Spark Cyto to assess metabolic activity of the cells. Before drug administration, after the first medium exchange, 24 h after drug administration, and after fluorescence imaging cell confluence was assessed using the Tecan Spark Cyto, to account for changes in cell confluence due to drug administration and cell handling. Compound effects on cell confluence, apoptosis, metabolic activity and necrosis were normalized to the vehicle control of each biological replicate individually.

CSNK1D = molecular target: T7, CSNK1D (Homo sapiens, UniProt P48730); assay: Liability panel screening by DSF: CSNK1D; format: binding; settings: DSF, 20 µM, n=2; read-out: Mean ΔTM CSNK1D
T7 construct: made in house
T7 sequence (P48730 whole entry, species assumed): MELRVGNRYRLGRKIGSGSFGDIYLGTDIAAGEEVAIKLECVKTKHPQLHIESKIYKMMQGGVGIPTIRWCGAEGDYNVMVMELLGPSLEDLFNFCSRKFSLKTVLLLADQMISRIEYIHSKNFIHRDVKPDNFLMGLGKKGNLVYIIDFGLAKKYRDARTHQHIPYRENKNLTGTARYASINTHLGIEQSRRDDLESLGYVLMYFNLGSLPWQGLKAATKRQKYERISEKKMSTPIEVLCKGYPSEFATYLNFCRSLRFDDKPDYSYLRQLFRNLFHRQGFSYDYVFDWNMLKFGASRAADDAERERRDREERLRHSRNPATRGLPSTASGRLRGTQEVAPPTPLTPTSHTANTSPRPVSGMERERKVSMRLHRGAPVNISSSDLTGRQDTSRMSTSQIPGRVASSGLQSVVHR
Outline: as §1

NR3C1 (GR) = settings: (lit.); ref Supplementary Table 1; read-out: Potency [nM] EC50, NR3C1 (GR); cited from earlier work
BRD4 = molecular target: T8, BRD4 (Homo sapiens, UniProt O60885); assay: Liability panel screening by DSF: BRD4; format: binding; settings: DSF, 20 µM, n=2; read-out: Mean ΔTM BRD4
T8 construct: This panel comprised ten highly ligandable kinases and bromodomains; made in house
Outline: as §1

[5] = tested on: NF-κB activity in HEK293 NF-κB reporter cells; assay: NF-kB activity assay (GFP reporter, ionomycin/PMA); format: cell-based; settings: for Mean NFκB response: n=3; for NF-κB activity (inflammatory response to ionomycin/PMA): HEK293 NF-κB reporter cells, compounds at recommended concentrations, imaged over 24 h, n = 3
Outline: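 Reporter readout: GFP-expressing cells normalized to confluence, imaged every 90 min across 24 h after ionomycin (100 ng/mL)/PMA (10 ng/mL) stimulation of HEK293 cells pre-treated 4 h with compound (0.1% DMSO); triplicate independent experiments.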

TRIM24 = molecular target: T9, TRIM24 (Homo sapiens, UniProt O15164); assay: Liability panel screening by DSF: TRIM24; format: binding; settings: DSF, 20 µM, n=2; read-out: Mean ΔTM TRIM24
T9 construct: This panel comprised ten highly ligandable kinases and bromodomains; made in house
T9 sequence (O15164 899-1004 limits assumed): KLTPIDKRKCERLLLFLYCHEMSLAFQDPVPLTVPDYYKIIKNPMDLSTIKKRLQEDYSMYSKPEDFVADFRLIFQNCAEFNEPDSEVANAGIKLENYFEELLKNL
Outline: as §1

Gal4-VP16 = format: cell-based; settings: 1 µM; vs. DMSO ctrl; single replicates n=1-3
ABL1 = molecular target: T10, ABL1 (Homo sapiens, UniProt P00519); assay: Liability panel screening by DSF: ABL1; format: binding; settings: DSF, 20 µM, n=2; read-out: Mean ΔTM ABL1
T10 construct: made in house
T10 sequence (P00519 whole entry, species assumed): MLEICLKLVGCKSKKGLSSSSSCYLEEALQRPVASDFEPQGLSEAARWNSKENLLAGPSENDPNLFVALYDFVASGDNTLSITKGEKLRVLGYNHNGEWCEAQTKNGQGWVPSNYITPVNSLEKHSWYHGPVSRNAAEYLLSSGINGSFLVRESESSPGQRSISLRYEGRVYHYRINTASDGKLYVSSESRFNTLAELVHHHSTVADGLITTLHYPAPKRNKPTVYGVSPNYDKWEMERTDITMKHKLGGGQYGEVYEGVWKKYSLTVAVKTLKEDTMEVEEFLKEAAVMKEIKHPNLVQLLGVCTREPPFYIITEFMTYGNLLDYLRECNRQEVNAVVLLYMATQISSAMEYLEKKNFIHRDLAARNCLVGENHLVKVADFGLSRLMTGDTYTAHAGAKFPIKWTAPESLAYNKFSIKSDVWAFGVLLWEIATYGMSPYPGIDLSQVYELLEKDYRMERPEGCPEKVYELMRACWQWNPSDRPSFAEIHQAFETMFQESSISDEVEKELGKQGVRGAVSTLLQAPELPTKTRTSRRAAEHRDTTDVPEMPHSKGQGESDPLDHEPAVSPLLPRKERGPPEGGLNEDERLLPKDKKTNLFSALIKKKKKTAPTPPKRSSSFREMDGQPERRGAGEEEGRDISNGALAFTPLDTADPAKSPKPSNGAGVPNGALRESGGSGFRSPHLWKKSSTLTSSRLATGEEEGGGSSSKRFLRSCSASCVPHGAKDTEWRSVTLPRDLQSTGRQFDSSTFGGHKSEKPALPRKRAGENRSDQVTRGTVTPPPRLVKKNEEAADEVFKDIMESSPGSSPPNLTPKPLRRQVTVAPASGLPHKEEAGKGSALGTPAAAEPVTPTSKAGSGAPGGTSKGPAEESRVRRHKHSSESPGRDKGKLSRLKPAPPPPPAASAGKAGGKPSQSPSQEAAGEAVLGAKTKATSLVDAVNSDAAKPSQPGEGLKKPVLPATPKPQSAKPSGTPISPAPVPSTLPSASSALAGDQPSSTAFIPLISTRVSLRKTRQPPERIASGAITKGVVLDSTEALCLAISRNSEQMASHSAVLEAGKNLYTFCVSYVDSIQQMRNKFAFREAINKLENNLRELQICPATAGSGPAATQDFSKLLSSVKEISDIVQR
Outline: as §1

[6] = tested on: ATF6 activity in Hela ATF6 reporter cells; assay: Endoplasmic reticulum stress assay (ATF6 Renilla luciferase reporter, tunicamycin); format: cell-based; settings: for ATF6 activity (tunicamycin-induced endoplasmic reticulum stress): Hela ATF6 reporter cells, tunicamycin 100 ng/mL, 18 h, compounds at recommended concentrations, n = 5; for activity at 1 µM: Homo sapiens, HeLa, single replicates n=1 to n=5, read-out: ER stress [rel. ATF6 activity]
Outline: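 ER stress was induced by 100 ng/mL tunicamycin added 4 h after compound (0.1% DMSO) to HeLa ATF6 reporter cells. After 18 h more, Renilla luciferase signal was read and expressed relative to DMSO control, n=5 biological replicates.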

Row | SMILES | Growth rate [GR] (HEK293T cells [1]) | ΔTm at 20 µM (AURKA) | ΔTm at 20 µM (BRPF1) | ΔTm at 20 µM (FGFR3) | ΔTm at 20 µM (GSK3B) | Metabolic activity [MA] (HEK293T cells [2]) | ΔTm at 20 µM (CDK2) | ΔTm at 20 µM (MAPK1) | Necrosis induction [NI] (HEK293T cells [3]) | Apoptosis induction [AI] (HEK293T cells [4]) | ΔTm at 20 µM (CSNK1D) | EC50 (NR3C1 (GR)) | ΔTm at 20 µM (BRD4) | Mean NFκB response ([5]; 1 µM, 1,5 h) | Mean NFκB response ([5]; 1 µM, 4,5 h) | Mean NFκB response ([5]; 1 µM, 7,5 h) | Mean NFκB response ([5]; 1 µM, 10,5 h) | Mean NFκB response ([5]; 1 µM, 13,5 h) | Mean NFκB response ([5]; 1 µM, 16,6 h) | Mean NFκB response ([5]; 1 µM, 19,5 h) | further results
1 | COc1cccc([C@@H](Oc2ccc3c(cnn3-c3ccc(F)cc3)c2)[C@H](C)NC(=O)C(F)(F)F)c1 [AZD5423] | 0.81 and 2.24 and 0.71 and 1.01 and 0.62 and 1.06 and 0.88 and 0.60 and 1.03 and 2.44 | -3.28 °C | -0.79 °C | -1.62 °C | 0.67 °C | 1.02 and 1.00 and 0.98 and 1.07 and 1.09 and 0.99 and 1.14 and 1.15 | -0.35 °C | -5.37 °C | 0.69 and 0.73 and 0.65 and 0.80 | 0.73 and 0.76 and 0.75 and 0.81 and 1.24 and 2.34 | -5.6 °C | 0.9 ± 0.2 nM | -1.37 °C | 2076.25 GFP+-cells/confluence ∙ 1000 | 2908.84 GFP+-cells/confluence ∙ 1000 | 5573.87 GFP+-cells/confluence ∙ 1000 | 12373.33 GFP+-cells/confluence ∙ 1000 | 17196.67 GFP+-cells/confluence ∙ 1000 | 21116.67 GFP+-cells/confluence ∙ 1000 | 24016.67 GFP+-cells/confluence ∙ 1000 | Mean NFκB response ([5]; 1 µM, 22,5 h): 27100.00 GFP+-cells/confluence ∙ 1000; Mean NFκB response ([5]; 1 µM, 3 h): 2386.46 GFP+-cells/confluence ∙ 1000; Mean NFκB response ([5]; 1 µM, 6 h): 3758.89 GFP+-cells/confluence ∙ 1000; Mean NFκB response ([5]; 1 µM, 9 h): 9073.33 GFP+-cells/confluence ∙ 1000; Mean NFκB response ([5]; 1 µM, 12 h): 14943.33 GFP+-cells/confluence ∙ 1000; Mean NFκB response ([5]; 1 µM, 15 h): 19223.33 GFP+-cells/confluence ∙ 1000; Mean NFκB response ([5]; 1 µM, 18 h): 22723.33 GFP+-cells/confluence ∙ 1000; Mean NFκB response ([5]; 1 µM, 21 h): 25420.00 GFP+-cells/confluence ∙ 1000; Mean NFκB response ([5]; 1 µM, 24 h): 27183.33 GFP+-cells/confluence ∙ 1000; NF-κB activity (inflammatory response to ionomycin/PMA) [5]: consistently delayed and strongly diminished NF-κB activity; ΔTm at 20 µM (TRIM24): -2.31 °C; VP16 control [fold reporter gene activity] (Gal4-VP16): 0.65 fold reporter gene activity and 0.98 fold reporter gene activity and 1.07 fold reporter gene activity; ΔTm at 20 µM (ABL1): -0.84 °C; ATF6 activity (tunicamycin-induced endoplasmic reticulum stress) [6]: Consistently weaker ATF6 activity; activity at 1 µM [6]: 84%
2 | C[C@H]1C[C@H]2[C@@H]3CCC4=CC(=O)C=C[C@]4(C)[C@@]3(Cl)[C@@H](O)C[C@]2(C)[C@@]1(O)C(=O)CO [Beclomethasone] | 0.71 and 0.34 and 0.95 and 1.09 and 0.91 and 1.08 and 0.81 and 0.17 and 2.51 and -0.30 | 0.03 °C | -0.66 °C | -0.31 °C | -0.75 °C | 1.06 and 1.03 (2×) and 0.92 and 0.98 (2×) and 1.01 and 1.10 | -0.29 °C | 0.36 °C | 0.78 and 0.71 and 0.63 and 0.85 | 0.38 and 0.63 and 0.67 and 0.78 and 0.69 and 1.03 | -0.04 °C | 8 nM | -0.57 °C | 2314.11 GFP+-cells/confluence ∙ 1000 | 2712.93 GFP+-cells/confluence ∙ 1000 | 3902.54 GFP+-cells/confluence ∙ 1000 | 7904.68 GFP+-cells/confluence ∙ 1000 | 11292.34 GFP+-cells/confluence ∙ 1000 | 14142.72 GFP+-cells/confluence ∙ 1000 | 16024.63 GFP+-cells/confluence ∙ 1000 | Mean NFκB response ([5]; 1 µM, 22,5 h): 18119.25 GFP+-cells/confluence ∙ 1000; Mean NFκB response ([5]; 1 µM, 3 h): 2367.97 GFP+-cells/confluence ∙ 1000; Mean NFκB response ([5]; 1 µM, 6 h): 3065.61 GFP+-cells/confluence ∙ 1000; Mean NFκB response ([5]; 1 µM, 9 h): 5609.44 GFP+-cells/confluence ∙ 1000; Mean NFκB response ([5]; 1 µM, 12 h): 9507.58 GFP+-cells/confluence ∙ 1000; Mean NFκB response ([5]; 1 µM, 15 h): 12732.70 GFP+-cells/confluence ∙ 1000; Mean NFκB response ([5]; 1 µM, 18 h): 14975.90 GFP+-cells/confluence ∙ 1000; Mean NFκB response ([5]; 1 µM, 21 h): 16981.30 GFP+-cells/confluence ∙ 1000; Mean NFκB response ([5]; 1 µM, 24 h): 19467.95 GFP+-cells/confluence ∙ 1000; NF-κB activity (inflammatory response to ionomycin/PMA) [5]: consistently delayed and strongly diminished NF-κB activity; ΔTm at 20 µM (TRIM24): -1.53 °C; VP16 control [fold reporter gene activity] (Gal4-VP16): 1.09 fold reporter gene activity and 0.87 fold reporter gene activity and 0.97 fold reporter gene activity; ΔTm at 20 µM (ABL1): -0.27 °C; ATF6 activity (tunicamycin-induced endoplasmic reticulum stress) [6]: Consistently weaker ATF6 activity; activity at 1 µM [6]: 72%
